Measurements taken from patent US9708326B2, “Inhibitors of bruton's tyrosine kinase” (Pharmacyclics LLC, priority 2013, dated 2017).

How the values were obtained:
Format in all cases: biochemical
Details in all cases: one of the methods outlined in Example 11a, 11b and 11c
[1] = biological target: T1, BTK (Homo sapiens, UniProt Q06187); assay: Inhibition of a panel of kinases: BTK in vitro kinase assay
T1 construct: N-terminal His6-tagged, recombinant, full-length, human BTK; His6 (N); made in house; host or cells: baculovirus / Sf21 insect cells
Description: (§1) Btk kinase activity is determined using a time-resolved fluorescence resonance energy transfer (TR-FRET) methodology. Measurements are performed in a reaction volume of 50 μL using 96-well assay plates. Kinase enzyme, inhibitor, ATP (at the Km for the kinase), and 1 μM peptide substrate (Biotin-AVLESEEELYSSARQ-NH2) are incubated in a reaction buffer composed of 20 mM Tris, 50 mM NaCl, MgCl2 (5-25 mM depending on the kinase), MnCl2 (0-10 mM), 1 mM DTT, 0.1 mM EDTA, 0.01% bovine serum albumin, 0.005% Tween-20, and 10% DMSO at pH 7.4 for one hour. The reaction is quenched by the addition of 1.2 equivalents of EDTA (relative to divalent cation) in 25 μL of 1× Lance buffer (Perkin-Elmer). Streptavidin-APC (Perkin-Elmer) and Eu-labeled p-Tyr100 antibody (Perkin-Elmer) in 1× Lance buffer are added in a 25 μL volume to give final concentrations of 100 nM and 2.5 nM, respectively, and the mixture is allowed to incubate for one hour. The TR-FRET signal is measured on a multimode plate reader with an excitation wavelength (λEx) of 330 nm and detection wavelengths (λEm) of 615 and 665 nm. Activity is determined by the ratio of the fluorescence at 665 nm to that at 615 nm. For each compound, enzyme activity is measured at various concentrations of compound. Negative control reactions are performed in the absence of inhibitor in replicates of six, and two no-enzyme controls are used to determine baseline fluorescence levels Inhibition constants, Ki(app), ware obtained using the program BatchKi (Kuzmic et al. (2000), Anal. Biochem. 286:45-50). IC50s are obtained according to the equation: IC50={Ki(app)/(1+[ATP]/Km^ATP)}+[E]total/2;
(§2) For all kinases, [ATP]=Km^ATP, [Btk]total=0.5 nM and [Lck]total=6 nM.
(§3) Kinase activity is measured in vitro using electrophoretic mobility shift assay. The kinase reactions are assembled in a total volume of 25 μL in 384 well plates. The reactions comprise: BTK enzyme (1 nM, N-terminal His6-tagged, recombinant, full-length, human BTK purified from baculovirus Sf21 insect cell system), inhibitor, ATP (16 μM, the apparent Km for the kinase), fluorescently labeled peptide substrate (1 μM, FAM-GEEPLYWSFPAKKK-NH2) in a reaction buffer composed of 100 mM HEPES, pH7.5, 5 mM MgCl2 1 mM DTT, 0.1% bovine serum albumin, 0.01% Triton X-100, and 1% DMSO. The reaction is incubated for one hour and is quenched by the addition of 45 μL of termination buffer (100 mM HEPES, pH7.5, 0.01% Triton X-100, 30 mM EDTA). The terminated reactions are analyzed using 12 channel LabChip® 3000 microfluidic detection instrument (Caliper Life Sciences). The enzymatic phosphorylation of the peptide results in a change in net charge, enabling electrophoretic separation of product from substrate peptide. As substrate and product peptides are separated, two peaks of fluorescence are observed. Change in the relative fluorescence intensity of the substrate and product peaks is the parameter measured, reflecting enzyme activity. In the presence of an inhibitor, the ratio between product and substrate is altered: the signal of the product decreases, while the signal of the substrate increases.
(§4) Activity in each sample is determined as the product to sum ratio (PSR): P/(S+P), where P is the peak height of the product peptide and S is the peak height of the substrate peptide. For each compound, enzyme activity is measured at various concentrations (12 concentrations of compound spaced by 3× dilution intervals). Negative control samples (0%-inhibition in the absence of inhibitor) and positive control samples (100%-inhibition, in the presence of 20 mM EDTA) are assembled in replicates of four and are used to calculate %-inhibition values for each inhibitor at each concentration. Percent inhibition (Pinh) is determined using following equation: […]

[2] = biological target: EGFR (Homo sapiens, UniProt P00533); assay: Inhibition of a panel of kinases: EGFR in vitro kinase assay
[3] = biological target: LCK (Homo sapiens, UniProt P06239); assay: Inhibition of a panel of kinases: LCK in vitro kinase assay
Description: as §1, §2, §3, §4

T1 sequence (Q06187 whole entry): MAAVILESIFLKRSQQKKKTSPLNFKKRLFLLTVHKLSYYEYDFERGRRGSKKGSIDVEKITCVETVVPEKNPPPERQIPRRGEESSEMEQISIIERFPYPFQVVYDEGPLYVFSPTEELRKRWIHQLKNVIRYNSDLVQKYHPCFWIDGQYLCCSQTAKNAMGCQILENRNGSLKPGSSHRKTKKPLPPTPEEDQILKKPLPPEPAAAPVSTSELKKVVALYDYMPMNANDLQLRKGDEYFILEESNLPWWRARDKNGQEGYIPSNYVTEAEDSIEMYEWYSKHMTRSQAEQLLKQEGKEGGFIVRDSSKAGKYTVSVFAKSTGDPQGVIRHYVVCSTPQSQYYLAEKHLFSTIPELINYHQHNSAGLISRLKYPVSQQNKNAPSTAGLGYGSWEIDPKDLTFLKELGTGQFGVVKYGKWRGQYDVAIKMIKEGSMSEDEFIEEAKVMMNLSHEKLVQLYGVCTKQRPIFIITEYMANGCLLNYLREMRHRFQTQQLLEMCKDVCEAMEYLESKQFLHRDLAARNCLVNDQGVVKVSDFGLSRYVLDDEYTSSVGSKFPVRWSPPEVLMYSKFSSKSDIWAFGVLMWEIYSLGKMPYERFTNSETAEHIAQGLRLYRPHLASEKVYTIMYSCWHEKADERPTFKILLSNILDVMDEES
LCK, sequence (P06239 whole entry, species assumed): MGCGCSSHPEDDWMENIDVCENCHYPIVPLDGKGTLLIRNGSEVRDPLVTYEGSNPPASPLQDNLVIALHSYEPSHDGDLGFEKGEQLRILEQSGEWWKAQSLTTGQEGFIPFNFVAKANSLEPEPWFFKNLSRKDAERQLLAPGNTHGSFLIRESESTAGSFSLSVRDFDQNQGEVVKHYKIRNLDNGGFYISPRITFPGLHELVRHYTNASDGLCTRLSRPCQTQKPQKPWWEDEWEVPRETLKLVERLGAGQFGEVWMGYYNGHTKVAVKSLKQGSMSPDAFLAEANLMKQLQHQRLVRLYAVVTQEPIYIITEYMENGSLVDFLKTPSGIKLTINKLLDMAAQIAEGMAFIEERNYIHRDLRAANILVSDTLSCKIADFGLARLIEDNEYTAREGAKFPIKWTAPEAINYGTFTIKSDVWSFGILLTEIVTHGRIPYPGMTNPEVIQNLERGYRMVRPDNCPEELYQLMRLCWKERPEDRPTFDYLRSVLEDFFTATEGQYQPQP
EGFR, sequence (P00533 25-1210, species assumed): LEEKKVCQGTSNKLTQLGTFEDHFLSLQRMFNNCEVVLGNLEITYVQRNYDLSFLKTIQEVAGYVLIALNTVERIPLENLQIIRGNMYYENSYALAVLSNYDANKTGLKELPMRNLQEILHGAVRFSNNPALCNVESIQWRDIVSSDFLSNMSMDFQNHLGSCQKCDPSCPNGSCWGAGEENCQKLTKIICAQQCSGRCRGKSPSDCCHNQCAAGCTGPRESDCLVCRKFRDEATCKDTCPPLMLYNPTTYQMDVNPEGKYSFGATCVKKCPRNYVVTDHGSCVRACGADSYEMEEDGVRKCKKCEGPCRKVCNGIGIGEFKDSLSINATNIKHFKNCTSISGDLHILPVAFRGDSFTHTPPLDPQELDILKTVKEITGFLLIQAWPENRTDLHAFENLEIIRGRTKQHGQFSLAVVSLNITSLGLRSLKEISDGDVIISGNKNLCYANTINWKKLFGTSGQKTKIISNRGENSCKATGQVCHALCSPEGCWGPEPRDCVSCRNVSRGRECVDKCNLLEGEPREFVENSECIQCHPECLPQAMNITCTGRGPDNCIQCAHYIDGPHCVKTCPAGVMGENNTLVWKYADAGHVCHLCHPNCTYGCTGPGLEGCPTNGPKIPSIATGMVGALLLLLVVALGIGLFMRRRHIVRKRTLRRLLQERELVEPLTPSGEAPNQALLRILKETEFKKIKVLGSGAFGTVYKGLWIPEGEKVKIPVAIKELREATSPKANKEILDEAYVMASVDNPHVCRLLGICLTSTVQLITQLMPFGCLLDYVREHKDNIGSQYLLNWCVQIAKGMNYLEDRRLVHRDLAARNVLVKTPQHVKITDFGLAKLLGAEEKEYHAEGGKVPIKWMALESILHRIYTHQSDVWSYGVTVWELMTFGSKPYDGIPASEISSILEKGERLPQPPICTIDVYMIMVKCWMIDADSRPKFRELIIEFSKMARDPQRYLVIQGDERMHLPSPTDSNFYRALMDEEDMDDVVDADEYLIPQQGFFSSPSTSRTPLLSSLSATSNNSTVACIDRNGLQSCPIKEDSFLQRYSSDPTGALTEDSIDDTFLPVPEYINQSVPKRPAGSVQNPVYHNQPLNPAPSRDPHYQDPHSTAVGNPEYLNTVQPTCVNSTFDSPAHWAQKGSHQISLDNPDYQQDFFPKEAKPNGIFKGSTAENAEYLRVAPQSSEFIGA

| IC50 [1] [nM] | IC50 [2] [nM] | IC50 [3] [nM] | Compound |
| --- | --- | --- | --- |
| < 100 | 1000 to 10000 | – | COCCOc1ccc(Nc2ncc3[nH]c(=O)n(-c4cccc(NC(=O)/C=C/CN(C)C)c4)c3n2)cc1 [Compound 6, (E)-4-(dimethylamino)-N-(3-(2-(4-(2-methoxyethoxyl)phenylamino)-8-oxo-7H-purin-9(8H)-yl)phenyl)but-2-enamide] |
| < 100 | 1000 to 10000 | 1000 to 10000 | C=CC(=O)N(C)c1cccc(-n2c(=O)[nH]c3cnc(Nc4ccc(OCCOC)cc4)nc32)c1 [Compound 13, N-(3-(2-(4-(2-methoxyethoxyl)phenylamino)-8-oxo-7H-purin-9(8H)-yl)phenyl)-N-methylacrylamide] |
| < 100 | 100 to 1000 | > 10000 | C=CC(=O)Nc1cccc(-n2c(=O)[nH]c3cnc(Nc4ccc(F)cc4)nc32)c1 [Compound 17, N-(3-(2-(4-fluorophenylamino)-8-oxo-7H-purin-9(8H)-yl)phenyl)acrylamide] |
| 100 to 1000 | > 10000 | – | CN(C)C/C=C/C(=O)N1CC(n2c(=O)[nH]c3cnc(Nc4ccc(F)cc4)nc32)C1 [Compound 23, (E)-9-(1-(4-(dimethylamino)but-2-enoyl)azetidin-3-yl)-2-(4-fluorophenylamino)-7H-purin-8(9H)-one] |
| 100 to 1000 | 1000 to 10000 | 1000 to 10000 | CN(C)C/C=C/C(=O)N1CCC[C@@H](n2c(=O)[nH]c3cnc(Nc4ccc(F)cc4)nc32)C1 [Compound 29, (R,E)-9-(1-(4-(dimethylamino)but-2-enoyl)piperidin-3-yl)-2-(4-fluorophenylamino)-7H-purin-8(9H)-one] |
| 100 to 1000 | > 10000 | 1000 to 10000 | CN(C)C/C=C/C(=O)N1CCC(n2c(=O)[nH]c3cnc(Nc4ccc(F)cc4)nc32)CC1 [Compound 35, (E)-9-(1-(4-(dimethylamino)but-2-enoyl)piperidin-4-yl)-2-(4-fluorophenylamino)-7H-purin-8(9H)-one] |
| < 100 | 1000 to 10000 | > 10000 | C=CC(=O)Nc1cccc(-n2c(=O)[nH]c3cnc(Nc4ccc(OCCOC)cc4)nc32)c1 [Compound 43, N-(3-(2-(4-(2-methoxyethoxyl)phenylamino)-8-oxo-7H-purin-9(8H)-yl)phenyl)acrylamide] |
| < 100 | 1000 to 10000 | 1000 to 10000 | CN(C)C/C=C/C(=O)Nc1cccc(-n2c(=O)[nH]c3cnc(Nc4ccc(F)cc4)nc32)c1 [Compound 48, (E)-4-(dimethylamino)-N-(3-(2-(4-fluorophenylamino)-8-oxo-7H-purin-9(8H)-yl)phenyl)but-2-enamide] |
| < 100 | 1000 to 10000 | 100 to 1000 | C=CC(=O)Nc1cccc(-c2n[nH]c3cnc(Nc4ccc(OCCOC)cc4)nc23)c1 [Compound 54, N-(3-(5-(4-(2-methoxyethoxyl)phenylamino)-1H-pyrazolo[4,3-d]pyrimidin-3-yl)phenyl)acrylamide] |
| 100 to 1000 | 1000 to 10000 | 1000 to 10000 | C=CC(=O)Nc1cccc(-c2c[nH]c3cnc(Nc4ccc(OCCOC)cc4)nc23)c1 [Compound 60, N-(3-(2-(4-(2-methoxyethoxyl)phenylamino)-5H-pyrrolo[3,2-d]pyrimidin-7-yl)phenyl)acrylamide] |
